Where two headings read alike, the source gives them in different places.
Experiments:
Providencia rettgeri = experiment: MIC, broth microdilution, standard strains and Japanese clinical isolates (Example 5, Table 4); assay type: cell-based; conditions: ATCCBAA2525; KUB4010 Providencia rettgeri ATCC BAA-2525, OXA-181
Enterobacterales = experiment: MIC, broth microdilution, CDC/FDA Antibiotic Resistance Isolate Bank (Example 7, Tables 8, 11, 12); assay type: cell-based; conditions: read-out: MIC
A. baumannii = experiment: MIC, broth microdilution, CDC/FDA Antibiotic Resistance Isolate Bank (Example 7, Tables 9, 13, 14); assay type: cell-based, Acinetobacter baumannii; conditions: for MIC: Acinetobacter baumannii, read-out: MIC
CRE and CPE strains = experiment: MIC, broth microdilution, standard strains and Japanese clinical isolates (Example 5, Table 4 continued; organism of each KUB strain not given); assay type: cell-based
[1] = MIC distribution, metallo-β-lactamase-producing A. baumannii, inhibitor µg/mL in parentheses

C[C@H]1[C@H](NC(=O)/C(=N\OC(C)(C)C(=O)O)c2csc(N)n2)C(=O)N1S(=O)(=O)O [Aztreonam, aztreonam]
0.12 µg/mL: MIC (Enterobacterales; Escherichia coli, Escherichia coli KUB No. 5796, AR Bank #452) | MIC (Enterobacterales; Escherichia coli, KUB No. 5774, AR Bank # 378) | MIC (Enterobacterales; Klebsiella aerogenes, Enterobacter aerogenes, KUB No. 5571, AR Bank # 74) | MIC (Enterobacterales; Klebsiella pneumoniae, KUB No. 5657, AR Bank # 160) | MIC (CRE and CPE strains; strain KUB3158, carbapenemase gene OXA-48) | MIC (CRE and CPE strains; strain KUB3163, carbapenemase gene IMP-1)
4 µg/mL: MIC (Enterobacterales; Enterobacter cloacae, KUB No. 5570, AR Bank # 73) | MIC (Enterobacterales; Escherichia coli, KUB No. 5564, AR Bank # 67) | MIC (Enterobacterales; Escherichia coli, KUB No. 5566, AR Bank # 69) | MIC (Enterobacterales; Escherichia coli, KUB No. 5583, AR Bank # 86) | MIC (Enterobacterales; Klebsiella oxytoca, KUB No. 5644, AR Bank # 147) | MIC (Enterobacterales; Proteus mirabilis, KUB No. 5652, AR Bank # 155) | MIC (Enterobacterales; Proteus mirabilis, KUB No. 5773, AR Bank # 377) | MIC (CRE and CPE strains; strain KUB3166, carbapenemase gene IMP-1)
3: Number of isolates at MIC >64 µg/mL (A. baumannii; [1])
32 µg/mL: MIC (Enterobacterales; Enterobacter cloacae, KUB No. 5529, AR Bank# 32) | MIC (Enterobacterales; Enterobacter cloacae, KUB No. 5557, AR Bank# 60) | MIC (Enterobacterales; Enterobacter cloacae, KUB No. 5778, AR Bank # 432) | MIC (Enterobacterales; Escherichia coli, KUB No. 5552, AR Bank# 55) | MIC (Enterobacterales; Escherichia coli, KUB No. 5615, AR Bank # 118) | MIC (Enterobacterales; Escherichia coli, KUB No. 5647, AR Bank # 150) | MIC (Enterobacterales; Escherichia coli, KUB No. 5648, AR Bank # 151) | MIC (Enterobacterales; Escherichia coli, KUB No. 5779, AR Bank # 433) | MIC (Enterobacterales; Escherichia, KUB No. 57, AR Bank # 436 (row cut off)) | MIC (Enterobacterales; Klebsiella aerogenes, Enterobacter aerogenes, KUB No. 5658, AR Bank # 161) | MIC (Enterobacterales; Klebsiella oxytoca, KUB No. 5771, AR Bank # 375) | MIC (Enterobacterales; Klebsiella pneumoniae, KUB No. 5623, AR Bank # 126) | MIC (Enterobacterales; Klebsiella pneumoniae, Klebsiella pneumoniae KUB No. 5809, AR Bank #504) | MIC (Enterobacterales; Morganella morganii, Morganella morganii KUB No. 5824, AR Bank #519) | MIC (Enterobacterales; Serratia marcescens, KUB No. 5588, AR Bank # 91) | MIC (A. baumannii; A. baumannii KUB No. 5585, AR Bank #88, OXA-64, NDM-1) | MIC (A. baumannii; A. baumannii KUB No. 5714, AR Bank #281, OXA-82) | MIC (A. baumannii; KUB No. 5719, AR Bank #286) | MIC (A. baumannii; KUB No. 5720, AR Bank #287) | MIC (A. baumannii; KUB No. 5727, AR Bank #294)
1 µg/mL: MIC (Providencia rettgeri) | MIC (Enterobacterales; Enterobacter cloacae, Enterobacter cloacae KUB No. 5807, AR Bank #501) | MIC (Enterobacterales; Escherichia coli, Escherichia coli KUB No. 5803, AR Bank #861)
0.06 µg/mL: MIC (Enterobacterales; Escherichia coli, KUB No. 5574, AR Bank # 77) | MIC (Enterobacterales; Escherichia coli, KUB No. 5764, AR Bank # 368) | MIC (Enterobacterales; Klebsiella pneumoniae, KUB No. 5531, AR Bank# 34) | MIC (CRE and CPE strains; strain KUB3628, carbapenemase gene IMP-1)
≤ 0.03 µg/mL: MIC (Enterobacterales; Proteus mirabilis, KUB No. 5653, AR Bank # 156) | MIC (Enterobacterales; Proteus mirabilis, KUB No. 5656, AR Bank # 159) | MIC (Enterobacterales; Providencia rettgeri, KUB No. 5579, AR Bank # 82) | MIC (CRE and CPE strains; strain KUB3165, carbapenemase gene IMP-34)
0.25 µg/mL: MIC (Enterobacterales; Klebsiella pneumoniae, KUB No. 5573, AR Bank # 76) | MIC (Enterobacterales; Proteus mirabilis, KUB No. 5556, AR Bank# 59) | MIC (Enterobacterales; Proteus mirabilis, KUB No. 5775, AR Bank # 379) | MIC (CRE and CPE strains; strain KUB3151, carbapenemase gene IMP-1, read-out: MIC)
16 µg/mL: MIC (Enterobacterales; Escherichia coli, KUB No. 5582, AR Bank # 85) | MIC (Enterobacterales; Escherichia coli, KUB No. 5586, AR Bank # 89) | MIC (Enterobacterales; Escherichia coli, KUB No. 5767, AR Bank # 371) | MIC (Enterobacterales; Escherichia coli, KUB No. 5769, AR Bank # 373) | MIC (Enterobacterales; Escherichia coli, KUB No. 5770, AR Bank # 374) | MIC (Enterobacterales; Klebsiella aerogenes, Enterobacter aerogenes, KUB No. 5559, AR Bank # 62) | MIC (Enterobacterales; Klebsiella aerogenes, Enterobacter aerogenes, KUB No. 5777, AR Bank # 431) | MIC (Enterobacterales; Serratia marcescens, KUB No. 5618, AR Bank # 121) | MIC (Enterobacterales; Serratia marcescens, KUB No. 5619, AR Bank # 122) | MIC (Enterobacterales; Serratia marcescens, KUB No. 5620, AR Bank # 123) | MIC (Enterobacterales; Serratia marcescens, KUB No. 5627, AR Bank # 130) | MIC (Enterobacterales; Serratia marcescens, KUB No. 5628, AR Bank # 131) | MIC (CRE and CPE strains; strain KUB3164, carbapenemase gene IMP-6)
0.5 µg/mL: MIC (Enterobacterales; Escherichia coli, KUB No. 5581, AR Bank # 84) | MIC (Enterobacterales; Escherichia coli, KUB No. 5646, AR Bank # 149)
1: Number of isolates at MIC 32 µg/mL (A. baumannii; [1])
8 µg/mL: MIC (Enterobacterales; Escherichia coli, KUB No. 5555, AR Bank# 58) | MIC (Enterobacterales; Escherichia coli, KUB No. 5578, AR Bank # 81) | MIC (Enterobacterales; Raoultella ornithinolvtica, KUB No. 5631, AR Bank # 134) | MIC (Enterobacterales; Serratia marcescens, KUB No. 5621, AR Bank # 124) | MIC (CRE and CPE strains; strain KUB3149, carbapenemase gene NDM-1, read-out: MIC) | MIC (CRE and CPE strains; strain KUB3150, carbapenemase gene OXA-48, read-out: MIC)
2 µg/mL: MIC (Enterobacterales; Enterobacter cloacae, Enterobacter cloacae group, KUB No. 5629, AR Bank # 132) | MIC (Enterobacterales; Serratia marcescens, Serratia marcescens KUB No. 5825, AR Bank #520)
